# Columns and labels:
# [1] = tested on: clinical resistant strain of Klebsiella pneumoniae 38206; assay: Chessboard combination test, bacterial inhibition rate / MIC / FIC; type: cell-based; settings: FIG. 2
# Description: (§1) 1) a standard strain of Klebsiella pneumoniae ATCC13883, a clinical resistant strain of Klebsiella pneumoniae 38206, a standard strain of Acinetobacter baumannii ATCC19606, a standard strain of Escherichia coli ATCC25922, and a standard strain of Pseudomonas aeruginosa ATCC27853 were respectively cultured at 37° C. and under shaking at 220 rpm until OD600=0.6-0.8, where OD600 referred to the absorbance of the solution at a wavelength of 600 nm.
# (§2) 2) The density of each bacterial culture with OD600=0.6-0.8 cultured in step 1) was adjusted to OD600=0.001 and placed in a chessboard experimental device.
# (§3) 3) Polymyxin B was subjected to 2-fold serial dilution along the horizontal axis, and dronedarone was subjected to 2-fold serial dilution along the vertical axis.
# (§4) 4) A blank group (added with a LB broth medium) and a control group (added with a LB broth medium and the standard bacterial solution cultured in step 1).
# (§5) 5) The final volume in each well of a 96-well plate was controlled to be 100 μL. After incubation for 18 h, each well was added with 10 μL of MTT, incubated at a condition of 37° C. with protection from light for 30 min, and then determined for the absorbance at 600 nm with a microplate reader. The bacterial inhibition rate was calculated according to the formula: bacterial inhibition rate (%)=1−(OD600 of an experimental group−OD600 of the blank group)/(OD600 of the control group−OD600 of the blank group)×100%, and a bacterial calorimetry diagram was drawn (the results were shown in FIGS. 1-5).
# (§6) The calculation equation of the FIC index was as follows:
# (§7) FIC=MICab/MICa+MICba/MICb=FICa+FICb, wherein a represented the dronedarone, b represented the polymyxin B, MICab was a MIC value of a combination of the dronedarone and the polymyxin B, MICba was a MIC value of a combination of the polymyxin B and the dronedarone, MICa or MICb was a MIC value of the dronedarone or the polymyxin B, respectively, and FICa or FICb was a FIC value of the dronedarone or the polymyxin B, respectively.
# [2] = tested on: standard strain of Acinetobacter baumannii ATCC19606; assay: as above; type: cell-based; settings: FIG. 3
# Description: as §1, §2, §3, §4, §5, §6, §7
# [3] = tested on: standard strain of Escherichia coli ATCC25922; assay: as above; type: cell-based; settings: FIG. 4
# Description: as §1, §2, §3, §4, §5, §6, §7
# [4] = tested on: standard strain of Klebsiella pneumoniae ATCC13883; assay: as above; type: cell-based; settings: FIG. 1
# Description: as §1, §2, §3, §4, §5, §6, §7
# [5] = tested on: standard strain of Pseudomonas aeruginosa ATCC27853; assay: as above; type: cell-based; settings: FIG. 5
# Description: as §1, §2, §3, §4, §5, §6, §7
# [6] = tested on: clinical polymyxin B-resistant strain of Klebsiella pneumoniae (38206); assay: Mouse lung infection model, survival; type: in vivo, BALB/c female mice; settings: intraperitoneal injection, 7 days
# Description: The dronedarone and the polymyxin B were combined to form a pharmaceutical composition, and used in combination in a mouse infection model to further illustrate the present disclosure.
# 1) Establishment of lung infection model: 60 BALB/c female mice aged 6-8 weeks (weighing about 20 g) were injected intrapulmonically with a lethal dose of a clinical polymyxin B-resistant strain of Klebsiella pneumoniae (38206) to establish an infection model. The concentration of the clinical polymyxin B-resistant strain of Klebsiella pneumoniae 38206 was 1.0×10^8 CFUs per mouse;
# 2) Group treatment: The female mice were randomly divided into six groups (n=10 mice per group), and treated with the drug through intraperitoneal injection.
# Among them, the six groups included a control group (injected with a PBS buffer), a treatment group I (injected with 0.2 mg/kg of the polymyxin B alone), a treatment group II (injected with 10 mg/kg of the dronedarone alone), a treatment group III (injected with a mixed solution of 0.2 mg/kg of the polymyxin B and 1 mg/kg of the dronedarone), a treatment group IV (injected with a mixed solution of 0.2 mg/kg of the polymyxin B and 5 mg/kg of the dronedarone), and a treatment group V (injected with a mixed solution of 0.2 mg/kg of the polymyxin B and 10 mg/kg of the dronedarone). […]
# [7] = in combination with dronedarone 2.5 μg/mL
# [8] = in combination with dronedarone 5 μg/mL
# [9] = polymyxin B 1 μg/mL, dronedarone not used
# [10] = polymyxin B 2 μg/mL, dronedarone not used
# [11] = in combination with polymyxin B 0.25 μg/mL
compound,measurement,setting,value
polymyxin B,MICba (MIC of polymyxin B after combination with dronedarone),[1]; [7],4 µg/mL
same,inhibition percentage,"[1]; polymyxin B 16 μg/mL, dronedarone not used",100%
same,"MIC used alone (MICa, MICb)",[1]; used alone,16 µg/mL
same,MICba (MIC of polymyxin B after combination with dronedarone),[2]; [8],0.25 µg/mL
same,inhibition percentage,[2]; [9],100%
same,"MIC used alone (MICa, MICb)",[2]; used alone,2 µg/mL
same,MICba (MIC of polymyxin B after combination with dronedarone),[3]; [8],0.25 µg/mL
same,inhibition percentage,[3]; [9],100%
same,"MIC used alone (MICa, MICb)",[3]; used alone,1 µg/mL
same,MICba (MIC of polymyxin B after combination with dronedarone),[4]; [7],0.13 µg/mL
same,inhibition percentage,[4]; [10],100%
same,"MIC used alone (MICa, MICb)",[4]; used alone,2 µg/mL
same,MICba (MIC of polymyxin B after combination with dronedarone),[5]; in combination with dronedarone 10 μg/mL,1 µg/mL
same,inhibition percentage,[5]; [10],100%
same,"MIC used alone (MICa, MICb)",[5]; used alone,2 µg/mL
same,survival rate,[6]; polymyxin B alone 0.2 mg/kg,10%
"CCCCc1oc2ccc(NS(C)(=O)=O)cc2c1C(=O)c1ccc(OCCCN(CCCC)CCCC)cc1 [dronedarone, N-[2-butyl-3-[4-[3-(dibutylamino)propoxy]benzoyl]-1-benzofuran-5-yl]methanesulfonamide]",inhibition at 20 µg/mL,"[1]; Klebsiella pneumoniae, dronedarone alone at highest concentration 20 μg/mL, no polymyxin B, read-out: bacterial inhibition percentage",~0%
same,MIC,"[1]; Klebsiella pneumoniae, used alone, read-out: MIC used alone (MICa, MICb)",> 20 µg/mL
same,MICab (MIC of dronedarone after combination with polymyxin B),[1]; in combination with polymyxin B 4 μg/mL,2.5 µg/mL
same,inhibition at 20 µg/mL,"[2]; Acinetobacter baumannii, ATCC19606, dronedarone alone at highest concentration 20 μg/mL, no polymyxin B, read-out: bacterial inhibition percentage",~0%
same,MIC,"[2]; Acinetobacter baumannii, ATCC19606, used alone, read-out: MIC used alone (MICa, MICb)",> 20 µg/mL
same,MICab (MIC of dronedarone after combination with polymyxin B),[2]; [11],5 µg/mL
same,inhibition at 20 µg/mL,"[3]; Escherichia coli, ATCC25922, dronedarone alone at highest concentration 20 μg/mL, no polymyxin B, read-out: bacterial inhibition percentage",~0%
same,MIC,"[3]; Escherichia coli, ATCC25922, used alone, read-out: MIC used alone (MICa, MICb)",> 20 µg/mL
same,MICab (MIC of dronedarone after combination with polymyxin B),[3]; [11],5 µg/mL
same,inhibition at 20 µg/mL,"[4]; Klebsiella pneumoniae, ATCC13883, dronedarone alone at highest concentration 20 μg/mL, no polymyxin B, read-out: bacterial inhibition percentage",~0%
same,MIC,"[4]; Klebsiella pneumoniae, ATCC13883, used alone, read-out: MIC used alone (MICa, MICb)",> 20 µg/mL
same,MICab (MIC of dronedarone after combination with polymyxin B),[4]; in combination with polymyxin B 0.13 μg/mL,2.5 µg/mL
same,inhibition at 20 µg/mL,"[5]; Pseudomonas aeruginosa, ATCC27853, dronedarone alone at highest concentration 20 μg/mL, no polymyxin B, read-out: bacterial inhibition percentage",~0%
same,MIC,"[5]; Pseudomonas aeruginosa, ATCC27853, used alone, read-out: MIC used alone (MICa, MICb)",> 20 µg/mL
same,MICab (MIC of dronedarone after combination with polymyxin B),[5]; in combination with polymyxin B 1 μg/mL,10 µg/mL
same,survival rate,[6]; dronedarone alone 10 mg/kg,10%

# Source: US20250073199A1, “Polymyxin Antibiotic Synergist and Anti-Gram-Negative Bacteria Pharmaceutical Composition” (Artivila Biopharma, priority 2022, published 2025)
